The molecules below were run against AMPK (assay: AMPK activation, enzyme-linked immunosorbent assay). Conditions: compounds of Table 1 (Table 6).
Format: biochemical

| Compound | EC50 [nM] |
| --- | --- |
| CN(C)c1ccc(CN2CCC(NC(=O)c3ccc(OC4CCN(c5ccc(C(F)(F)F)cc5)CC4)cn3)CC2)cc1 [1-39, N-(1-(4-(dimethylamino)benzyl)piperidin-4-yl)-5-(1-(4-(trifluoromethyl)phenyl)piperidin-4-yloxy)picolinamide] | 100 to 500 |
| O=C(NC1CCN(Cc2ccccn2)CC1)c1cc2ccc(OC3CCN(c4ccc(C(F)(F)F)cc4)CC3)cc2o1 [1-93, N-(1-(pyridin-2-ylmethyl)piperidin-4-yl)-6-(1-(4-(trifluoromethyl)phenyl)piperidin-4-yloxy)benzofuran-2-carboxamide] | 100 to 500 |
| O=C(NC1CCN(Cc2cccnc2)CC1)c1cc2cc(OC3CCN(c4ccc(C(F)(F)F)cc4)CC3)ccc2o1 [1-101, N-(1-(pyridin-3-ylmethyl)piperidin-4-yl)-5-(1-(4-(trifluoromethyl)phenyl)piperidin-4-yloxy)benzofuran-2-carboxamide] | < 100 |
| N#Cc1ccc(CN2CCC(NC(=O)c3cc4ccc(OC5CCN(c6ccc(C(F)(F)F)cc6)CC5)cc4o3)CC2)cc1 [1-90, N-(1-(4-cyanobenzyl)piperidin-4-yl)-6-(1-(4-(trifluoromethyl)phenyl)piperidin-4-yloxy)benzofuran-2-carboxamide] | < 100 |
| N#Cc1ccc(CN2CCC(NC(=O)c3cncc(OC4CCN(c5ccc(C(F)(F)F)cc5)CC4)c3)CC2)cc1 [1-17, N-(1-(4-cyanobenzyl)piperidin-4-yl)-5-(1-(4-(trifluoromethyl)phenyl)piperidin-4-yloxy)nicotinamide] | < 100 |
| O=C(N[C@@H]1CCN(Cc2cccnc2)C1)c1cc2cc(OC3CCN(c4ccc(C(F)(F)F)cc4)CC3)ccc2o1 [1-123, (R)-N-(1-(pyridin-3-ylmethyl)pyrrolidin-3-yl)-5-(1-(4-(trifluoromethyl)phenyl)piperidin-4-yloxy)benzofuran-2-carboxamide] | 100 to 500 |
| Cc1c(C(=O)NC2CCN(Cc3cccc(C#N)c3)CC2)oc2cc(OC3CCN(c4ccc(C(F)(F)F)cc4)CC3)ccc12 [1-66, N-(1-(3-cyanobenzyl)piperidin-4-yl)-3-methyl-6-(1-(4-(trifluoromethyl)phenyl)piperidin-4-yloxy)benzofuran-2-carboxamide] | < 100 |
| NC(=O)c1ccc(CN2CCC(Oc3ccc4oc(C(=O)NC5CCN(Cc6ccccc6)CC5)cc4c3)CC2)cc1 [1-116, N-(1-benzylpiperidin-4-yl)-5-(1-(4-carbamoylbenzyl)piperidin-4-yloxy)benzofuran-2-carboxamide] | 100 to 500 |
| CN(C(=O)c1cc2cc(OC3CCN(c4ccc(C(F)(F)F)cc4)CC3)ccc2o1)C1CCN(Cc2ccccn2)CC1 [1-117, N-methyl-N-(1-(pyridin-2-ylmethyl)piperidin-4-yl)-5-(1-(4-(trifluoromethyl)phenyl)piperidin-4-yloxy)benzofuran-2-carboxamide] | < 100 |
| CN(C(=O)c1cc2cc(OC3CCN(c4ccc(C(F)(F)F)cc4)CC3)ccc2o1)C1CCNCC1 [1-103, N-methyl-N-(piperidin-4-yl)-5-(1-(4-(trifluoromethyl)phenyl)piperidin-4-yloxy)benzofuran-2-carboxamide] | 1000 to 5000 |
| O=C(NC1CCNCC1)c1cc2cc(OC3CCN(c4ccc(C(F)(F)F)cc4)CC3)ccc2s1 [1-150, N-(piperidin-4-yl)-5-(1-(4-(trifluoromethyl)phenyl)piperidin-4-yloxy)benzo[b]thiophene-2-carboxamide] | 1000 to 5000 |
| CC(C)(C)OC(=O)N1CCC(NC(=O)c2cc3cc(OC4CCN(c5ccc(C(F)(F)F)cc5)CC4)ccc3s2)CC1 [1-149, tert-butyl 4-(5-(1-(4-(trifluoromethyl)phenyl)piperidin-4-yloxy)benzo[b]thiophene-2-carboxamido)piperidine-1-carboxylate] | < 100 |
| COC(=O)c1ccc(CN2CCC(NC(=O)c3ccc(OC4CCN(c5ccc(C#N)cc5)CC4)cn3)CC2)cc1 [1-7, methyl 4-((4-(5-(1-(4-cyanophenyl)piperidin-4-yloxy)picolinamido)piperidin-1-yl)methyl)benzoate] | < 100 |
| O=C(NC1CCN(Cc2ccc(C(F)(F)F)cc2)CC1)c1cc2cc(OC3CCN(c4ccc(C(F)(F)F)cc4)CC3)ccc2o1 [1-100, N-(1-(4-(trifluoromethyl)benzyl)piperidin-4-yl)-5-(1-(4-(trifluoromethyl)phenyl)piperidin-4-yloxy)benzofuran-2-carboxamide] | < 100 |

Same assay, conditions: compounds of Table 2 (Table 7)

| Compound | EC50 [nM] |
| --- | --- |
| N#Cc1ccc(CN2CCC(NC(=O)c3ccc4[nH]c5c(c4c3)CN(S(=O)(=O)c3ccc(C#N)cc3)CC5)CC2)cc1 [2-25, N-(1-(4-cyanobenzyl)piperidin-4-yl)-2-(4-cyanophenylsulfonyl)-2,3,4,5-tetrahydro-1H-pyrido[4,3-b] indole-8-carboxamide] | 10000 to 50000 |
| Cn1c2c(c3cc(C(=O)NC4CCN(Cc5cccnc5)CC4)ccc31)CN(Cc1ccc(C(F)(F)F)cc1)CC2 [2-18, 5-methyl-N-(1-(pyridin-3-ylmethyl)piperidin-4-yl)-2-(4-(trifluoromethyl)benzyl)-2,3,4,5-tetrahydro-1H-pyrido[4,3-b]indole-8-carboxamide] | 1000 to 5000 |
| CC(C)(C)OC(=O)N1CCC(NC(=O)c2ccc3[nH]c4c(c3c2)CN(c2ccc(F)cc2)CC4)CC1 [2-38, tert-butyl 4-(2-(4-fluorophenyl)-2,3,4,5-tetrahydro-1H-pyrido [4,3-b]indole-8-carboxamido)piperidine-1-carboxylate] | 10000 to 50000 |
| CC(=O)n1c2c(c3cc(C(=O)NC4CCN(Cc5cccnc5)CC4)ccc31)CN(Cc1ccc(C(F)(F)F)cc1)CC2 [2-20, 5-acetyl-N-(1-(pyridin-3-ylmethyl)piperidin-4-yl)-2-(4-(trifluoromethyl)benzyl)-2,3,4,5-tetrahydro-1H-pyrido[4,3-b]indole-8-carboxamide] | 1000 to 5000 |
| CC(C)(C)OC(=O)N1CCC(NC(=O)c2ccc3[nH]c4c(c3c2)CN(Cc2ccc(C(N)=O)cc2)CC4)CC1 [2-43, tert-butyl 4-(2-(4-carbamoylbenzyl)-2,3,4,5-tetrahydro-1H-pyrido[4,3-b]indole-8-carboxamido) piperidine-1-carboxylate] | > 100000 |

Same assay, conditions: compounds of Table 3 (Table 8)

| Compound | EC50 [nM] |
| --- | --- |
| O=C(NC1CCN(C(=O)c2ccc(F)cc2)CC1)c1nc2ccc(OC3CCN(c4ccc(C(F)(F)F)cc4)CC3)cc2o1 [3-4, N-(1-(4-fluorobenzoyl)piperidin-4-yl)-6-(1-(4-(trifluoromethyl)phenyl)piperidin-4-yloxy)benzo[d]oxazole-2-carboxamide] | < 100 |
| N#Cc1ccc(C(=O)N2CC3CC2CN3C(=O)c2nc3ccc(OC4CCN(c5ccc(C(F)(F)F)cc5)CC4)cc3o2)cc1 (stereo not drawn) [3-12, 4-(5-(6-(1-(4-(trifluoromethyl)phenyl)piperidin-4-yloxy)benzo[d]oxazole-2-carbonyl)-2,5-diazabicyclo[2.2.1]heptane-2-carbonyl)benzonitrile] | < 100 |

Same assay, conditions: compounds of Table 5 (Table 10)

| Compound | EC50 [nM] |
| --- | --- |
| COc1ccc(CN2CCC(Oc3ccc(C(=O)N4CCN(C(=O)OC(C)(C)C)CC4)cc3)CC2)cc1 [5-96, tert-butyl 4-(4-(1-(4-methoxybenzyl)piperidin-4-yloxy)benzoyl)piperazine-1-carboxylate] | 1000 to 10000 |
| O=C(NC1CCN(Cc2ccccc2)CC1)c1ccc(OC2CCN(Cc3ccc4c(c3)OCCO4)CC2)c(Cl)c1 [5-15, N-(1-benzylpiperidin-4-yl)-3-chloro-4-(1-((2,3-dihydrobenzo[b][1,4]dioxin-6-yl)methyl)piperidin-4-yloxy)benzamide] | < 1000 |
| N#Cc1ccc(CN2CCC(NC(=O)c3ccc(OC4CCN(c5ccc(C#N)cc5)CC4)c(F)c3)CC2)cc1 [5-45, N-(1-(4-cyanobenzyl)piperidin-4-yl)-4-(1-(4-cyanophenyl)piperidin-4-yloxy)-3-fluorobenzamide] | < 1000 |
| Cn1cncc1CN1CCC(Oc2ccc(C(=O)NC3CCN(Cc4ccccc4)CC3)cc2Cl)CC1 [5-5, N-(1-benzylpiperidin-4-yl)-3-chloro-4-(1-((1-methyl-1H-imidazol-5-yl)methyl)piperidin-4-yloxy)benzamide] | 50000 to 100000 |
| O=C(NC1CCN(Cc2ccc(F)cc2)CC1)c1ccc(OC2CCN(c3ccc(C(F)(F)F)cc3)CC2)c(F)c1 [5-27, 3-fluoro-N-(1-(4-fluorobenzyl)piperidin-4-yl)-4-(1-(4-(trifluoromethyl)phenyl)piperidin-4-yloxy)benzamide] | < 1000 |
| O=C(NC1CCN(Cc2ccccc2)CC1)c1ccc(OC2CCN(C(=O)c3ccc(C(F)(F)F)cc3)CC2)c(Cl)c1 [5-18, N-(1-benzylpiperidin-4-yl)-3-chloro-4-(1-(4-(trifluoromethyl)benzoyl)piperidin-4-yloxy)benzamide] | < 1000 |
| N#Cc1ccc(N2CCC(Oc3cccc(C(=O)NC4CCN(Cc5ccccc5)CC4)c3)CC2)cc1 [5-48, N-(1-benzylpiperidin-4-yl)-3-(1-(4-cyanophenyl)piperidin-4-yloxy)benzamide] | < 1000 |
| O=C(NC1CCN(Cc2ccccc2)CC1)c1ccc(OC2CCN(c3ccc(C(F)(F)F)cc3)CC2)c(F)c1 [5-23, N-(1-benzylpiperidin-4-yl)-3-fluoro-4-(1-(4-(trifluoromethyl)phenyl)piperidin-4-yloxy)benzamide] | < 1000 |
| N#Cc1ccc(N2CCC(Oc3ccc(C(=O)NC4CCN(Cc5ccncc5)CC4)cc3F)CC2)cc1 [5-44, 4-(1-(4-cyanophenyl)piperidin-4-yloxy)-3-fluoro-N-(1-(pyridin-4-ylmethyl)piperidin-4-yl)benzamide] | < 1000 |
| O=C(NC1CCN(Cc2ccccc2)CC1)c1ccc(OC2CCN(Cc3ccccn3)CC2)c(F)c1 [5-39, N-(1-benzylpiperidin-4-yl)-3-fluoro-4-(1-(pyridin-2-ylmethyl)piperidin-4-yloxy)benzamide] | 1000 to 10000 |
| O=C(NC1CCN(Cc2ccccc2)CC1)c1ccc(OC2CCN(Cc3ccc(OC(F)(F)F)cc3)CC2)c(Cl)c1 [5-54, N-(1-benzylpiperidin-4-yl)-3-chloro-4-(1-(4-(trifluoromethoxy)benzyl)piperidin-4-yloxy)benzamide] | < 1000 |
| O=C(NC1CCN(c2ccccc2)CC1)c1ccc(OC2CCN(c3ccc(C(F)(F)F)cc3)CC2)c(F)c1 [5-25, 3-fluoro-N-(1-phenylpiperidin-4-yl)-4-(1-(4-(trifluoromethyl)phenyl)piperidin-4-yloxy)benzamide] | > 100000 |

Reference: US9511058B2, “Methods for using carboxamide, sulfonamide and amine compounds” (Rigel Pharmaceuticals, Inc., priority 2010, dated 2016)
